Laboratory results taken from patent US6372757B1, “Phenylurea and phenylthio urea derivatives” (SmithKline Beecham p.l.c., priority 1998, dated 2002).
Where a name gives a salt, the structure may show the parent alone. No end group written: not given here.

Experiments:
human orexin-1 receptor = biological target: T1, human orexin-1 receptor (Homo sapiens, UniProt O43613); experiment: Orexin-1 receptor antagonist activity, FLIPR intracellular calcium assay in HEK293 cells against 3.0 nM human orexin-A; format: cell-based; conditions: HEK293 cells expressing human orexin-1 receptor; antagonism of 3.0 nM human orexin-A; Kb=IC50/(1+([3/EC50])
T1 construct: expressed in transfected cells; host or cells: HEK293
T1 sequence (O43613 1-425): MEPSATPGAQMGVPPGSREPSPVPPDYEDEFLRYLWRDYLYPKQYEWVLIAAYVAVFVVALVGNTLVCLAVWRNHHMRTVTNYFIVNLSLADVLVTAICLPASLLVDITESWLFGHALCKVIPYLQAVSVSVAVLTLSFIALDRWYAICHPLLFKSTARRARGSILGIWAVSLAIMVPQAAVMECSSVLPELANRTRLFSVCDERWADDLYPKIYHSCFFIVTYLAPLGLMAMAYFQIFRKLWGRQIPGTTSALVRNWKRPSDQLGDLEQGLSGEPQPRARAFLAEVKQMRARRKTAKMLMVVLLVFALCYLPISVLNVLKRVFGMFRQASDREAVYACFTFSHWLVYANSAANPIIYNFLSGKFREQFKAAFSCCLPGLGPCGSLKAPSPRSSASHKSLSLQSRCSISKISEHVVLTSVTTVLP
Experimental: The seeded plates were incubated overnight at 37° C. in 5% CO2.

[1] = Rat sleep/EEG studies, central administration at onset of normal sleep period; format: in vivo; conditions: at the expense of paradoxical sleep and slow wave sleep 2
Excerpt: Therefore, antagonists of orexin receptors may be useful in the treatment of sleep disorders including insomnia.

[2] = central administration, freely-feeding rats, 4 hour time period; cited from earlier work

| Kb (human orexin-1 receptor) [nM] | Compound | effect on arousal [1] | increase in food intake over control rats receiving vehicle [2] |
| --- | --- | --- | --- |
| < 100 | CSc1ccc(NC(=O)Nc2ccnc3cccnc23)cc1 [Example 2, 1-(4-Methylthiophenyl)-3-[1,5]naphthyridin-4-yl urea hydrochloride] |  |  |
|  | orexin-A: ligand for the orexin-1 receptor; 33-residue peptide, sequence given in the 1st table (QPLPDCCRQKTCSCRLYELLHGAGNHAAGILTL-NH2; not fully specified (residue 1, bridges); ends and bridges not checked; UniProt O43612 34-66, looked up) | does-related increase in arousal | approximately four-fold |
